In US11180657B2, “Polysulfonated fluorescence dyes” (ATTO-TEC GmbH, priority 2017, dated 2021):
Marks after values point to notes of the source that are not given here.

Key:
[1] = Fluorescence maximum of the dye; format: physicochemical
Text: (§1) Examples of the compounds according to the invention are listed in Tables 2-6, where the structures as well as the absorption and fluorescence maxima are indicated. The spectra of selected compounds are shown FIGS. 5-18.

[2] = Absorption maximum of the dye; format: physicochemical
Text: as §1

Compound	λfl ([1]; solvent PBS pH 7.4)	λabs ([2]; solvent water/acetonitrile 1:1)	λabs ([2]; solvent PBS pH 7.4)	λfl ([1]; solvent ethanol)	λabs ([2]; solvent ethanol)
O=C(O)c1ccccc1-c1c2cc/c(=N/CS(=O)(=O)O)c(S(=O)(=O)O)c-2oc2c(S(=O)(=O)O)c(NCS(=O)(=O)O)ccc12 [Compound 1]	554^b nm	533^c nm			
CCN(Cc1ccccc1S(=O)(=O)O)c1ccc2c(-c3ccccc3C(=O)O)c3cc/c(=[N+](\CC)Cc4ccccc4S(=O)(=O)O)cc-3oc2c1 [Compound 2]	584^b nm	554^c nm			
CCN(Cc1ccc(S(=O)(=O)O)cc1S(=O)(=O)O)c1ccc2c(-c3ccccc3C(=O)O)c3cc/c(=[N+](\CC)Cc4ccc(S(=O)(=O)O)cc4S(=O)(=O)O)cc-3oc2c1 [Compound 3]	583^b nm	550^c nm			
O=C(O)c1ccccc1-c1c2cc/c(=N/Cc3ccc(S(=O)(=O)O)cc3S(=O)(=O)O)cc-2oc2cc(NCc3ccc(S(=O)(=O)O)cc3S(=O)(=O)O)ccc12 [Compound 4]	559^b nm	536^c nm			
CCN(Cc1ccc(S(=O)(=O)O)cc1S(=O)(=O)O)c1ccc2c(-c3ccccc3C(=O)N(C)CCCC(=O)O)c3cc/c(=[N+](\CC)Cc4ccc(S(=O)(=O)O)cc4S(=O)(=O)O)cc-3oc2c1 [Compound 5]	584^b nm	560^c nm			
CN(CCCC(=O)ON1C(=O)CCC1=O)C(=O)c1ccccc1-c1c2cc(S(=O)(=O)O)/c(=N/Cc3ccc(S(=O)(=O)O)cc3S(=O)(=O)O)cc-2oc2cc(NCc3ccc(S(=O)(=O)O)cc3S(=O)(=O)O)c(S(=O)(=O)O)cc12 [Compound 7]	559^b nm	534^c nm			
CN(CCCC(=O)O)C(=O)c1ccccc1-c1c2ccc(=[N+](Cc3ccc(S(=O)(=O)O)cc3S(=O)(=O)O)Cc3ccc(S(=O)(=O)O)cc3S(=O)(=O)O)cc-2oc2cc(N(Cc3ccc(S(=O)(=O)O)cc3S(=O)(=O)O)Cc3ccc(S(=O)(=O)O)cc3S(=O)(=O)O)ccc12 [Compound 9]	572^b nm	550^c nm			
CN(CCCC(=O)O)C(=O)c1ccccc1-c1c2cc/c(=N/Cc3ccc(S(=O)(=O)O)cc3S(=O)(=O)O)cc-2oc2cc(NCc3ccc(S(=O)(=O)O)cc3S(=O)(=O)O)ccc12 [Compound 13]	555^b nm	534^c nm			
O=C(O)c1ccccc1-c1c2cc/c(=N/CCc3ccc(S(=O)(=O)O)cc3)cc-2oc2cc(NCCc3ccc(S(=O)(=O)O)cc3)ccc12 [Compound 18]	551^b nm	530^c nm			
CN(CCCC(=O)O)C(=O)c1ccccc1-c1c2cc/c(=N/CCc3ccc(S(=O)(=O)O)cc3)cc-2oc2cc(NCCc3ccc(S(=O)(=O)O)cc3)ccc12 [Compound 21]	559^b nm	538^c nm			
CN(CCCC(=O)O)C(=O)c1ccccc1-c1c2cc(S(=O)(=O)O)/c(=N/CCc3ccc(S(=O)(=O)O)cc3)cc-2oc2cc(NCCc3ccc(S(=O)(=O)O)cc3)ccc12 [Compound 22]	558^b nm	536^c nm			
O=C(O)c1ccccc1-c1c2cc/c(=N/CCc3ccc(S(=O)(=O)O)cc3S(=O)(=O)O)cc-2oc2cc(NCCc3ccc(S(=O)(=O)O)cc3S(=O)(=O)O)ccc12 [Compound 23]	559^b nm	532^c nm			
CN(CCCC(=O)O)C(=O)c1ccccc1-c1c2cc/c(=N/CCc3ccc(S(=O)(=O)O)cc3S(=O)(=O)O)cc-2oc2cc(NCCc3ccc(S(=O)(=O)O)cc3S(=O)(=O)O)ccc12 [Compound 24]	561^b nm	539^c nm			
CN(CCCC(=O)O)C(=O)c1ccccc1C1=c2cc3c(cc2Oc2cc4c(cc21)CCCN4Cc1ccc(S(=O)(=O)O)cc1S(=O)(=O)O)=[N+](Cc1ccc(S(=O)(=O)O)cc1S(=O)(=O)O)CCC3 [Compound 28]		567^c nm			
CN(CCCC(=O)O)C(=O)c1ccccc1-c1c2cc/c(=N/Cc3ccc(S(=O)(=O)O)cc3S(=O)(=O)O)c(S(=O)(=O)O)c-2oc2c(S(=O)(=O)O)c(NCc3ccc(S(=O)(=O)O)cc3S(=O)(=O)O)ccc12 [Compound 29]		531^c nm			
O=C(O)CN(CCS(=O)(=O)O)C(=O)c1ccccc1-c1c2cc/c(=N/Cc3ccc(S(=O)(=O)O)cc3S(=O)(=O)O)c(S(=O)(=O)O)c-2oc2c(S(=O)(=O)O)c(NCc3ccc(S(=O)(=O)O)cc3S(=O)(=O)O)ccc12 [Compound 30]		536^c nm			
CN(CCCC(=O)O)C(=O)c1ccccc1-c1c2cc/c(=N/Cc3ccc(S(=O)(=O)O)cc3S(=O)(=O)O)c(S(=O)(=O)O)c-2oc2c(S(=O)(=O)O)c(NCc3ccc(S(=O)(=O)O)cc3S(=O)(=O)O)ccc12.CS(=O)(=O)O [Compound 31]		532^c nm			
CN(CCCC(=O)O)C(=O)c1c(-c2c3cc/c(=N/Cc4ccc(S(=O)(=O)O)cc4S(=O)(=O)O)c(S(=O)(=O)O)c-3oc3c(S(=O)(=O)O)c(NCc4ccc(S(=O)(=O)O)cc4S(=O)(=O)O)ccc23)cc(S(=O)(=O)O)cc1S(=O)(=O)O [Compound 32]		530^c nm			

Compound	λfl ([1]; solvent PBS pH 7.4)	λabs ([2]; solvent water/acetonitrile 1:1)	λabs ([2]; solvent PBS pH 7.4)	λfl ([1]; solvent ethanol)	λabs ([2]; solvent ethanol)
CN(CCCC(=O)O)C(=O)c1cc2ccccc2cc1-c1c2cc/c(=N/Cc3ccc(S(=O)(=O)O)cc3S(=O)(=O)O)c(S(=O)(=O)O)c-2oc2c(S(=O)(=O)O)c(NCc3ccc(S(=O)(=O)O)cc3S(=O)(=O)O)ccc12.CS(=O)(=O)O.CS(=O)(=O)O [Compound 33]		539^c nm			
CN(CCCC(=O)O)C(=O)c1ccccc1-c1c2cc/c(=N/Cc3cc(S(=O)(=O)O)c4cc(S(=O)(=O)O)cc(S(=O)(=O)O)c4c3)c(S(=O)(=O)O)c-2oc2c(S(=O)(=O)O)c(NCc3cc(S(=O)(=O)O)c4cc(S(=O)(=O)O)cc(S(=O)(=O)O)c4c3)ccc12 [Compound 34]			530^b nm		
CC1(C)c2c(cc3c4c2CCCN4CCC3)C(c2c(F)c(F)c(SCC(=O)O)c(F)c2F)=c2cc3c(cc21)=[N+](Cc1ccc(S(=O)(=O)O)cc1S(=O)(=O)O)CCC3 [Compound 36]	677^b nm		656^b nm		
CN(C)c1ccc2c(c1)C(C)(C)C1=C/C(=[N+](/C)Cc3ccc(S(=O)(=O)O)cc3S(=O)(=O)O)C=CC1=C2c1c(F)c(F)c(F)c(F)c1F [Compound 37]	661^b nm		642^b nm		
CN(C)c1ccc2c(c1)C(C)(C)c1cc3c(cc1=C2c1c(F)c(F)c(SCC(=O)O)c(F)c1F)CCC[N+]=3Cc1ccc(S(=O)(=O)O)cc1S(=O)(=O)O [Compound 38]	667^b nm		646^b nm		
CN(C)c1ccc2c(c1)C(C)(C)c1cc3c(cc1=C2c1c(F)c(F)c(SCC(=O)O)c(F)c1F)C(CS(=O)(=O)O)CC(C)(C)[N+]=3Cc1ccc(S(=O)(=O)O)cc1S(=O)(=O)O (stereo not shown) [Compound 39]	693^b nm		673^b nm		
CC1(C)c2cc3c(cc2C(c2c(F)c(F)c(SCC(=O)O)c(F)c2F)=c2cc4c(cc21)=[N+](Cc1ccc(S(=O)(=O)O)cc1S(=O)(=O)O)C(C)(C)CC4CS(=O)(=O)O)C(CS(=O)(=O)O)=CC(C)(C)N3Cc1ccc(S(=O)(=O)O)cc1S(=O)(=O)O (stereo not shown) [Compound 40]	720^b nm		699^b nm		
CN(CCCC(=O)O)C(=O)c1ccccc1C1=c2cc3c(cc2C(C)(C)c2c1cc1c4c2CCCN4CCC1)=[N+](Cc1ccc(S(=O)(=O)O)cc1S(=O)(=O)O)CCC3 [Compound 41]	659 nm		640 nm	663 nm	642 nm
CC[N+]1=c2cc3c(cc2C(CS(=O)(=O)O)=CC1(C)C)=C(c1c(F)c(F)c(SCCS(=O)(=O)O)c(F)c1F)c1cc2c(cc1C3(C)C)N(Cc1ccc(S(=O)(=O)O)cc1S(=O)(=O)O)CCC2 [Compound 42]	701^b nm		682^b nm		
CC[N+]1=c2cc3c(cc2C(CS(=O)(=O)O)=CC1(C)C)=C(c1c(F)c(F)c(SCC(=O)O)c(F)c1F)c1cc2c(cc1C3(C)C)N(Cc1ccc(S(=O)(=O)O)cc1S(=O)(=O)O)CCC2 [Compound 43]	704^b nm		684^b nm		
CC1(C)C=C(CS(=O)(=O)O)c2cc3c(cc2N1)C(C)(C)c1cc2c(cc1=C3c1c(F)c(F)c(SCC(=O)O)c(F)c1F)C(CS(=O)(=O)O)=CC(C)(C)[N+]=2Cc1ccc(S(=O)(=O)O)cc1 [Compound 44]	707^b nm		687^b nm		
CC1(C)c2cc3c(cc2C(c2c(F)c(F)c(SCCS(=O)(=O)O)c(F)c2F)=c2cc4c(cc21)=[N+](CCc1ccc(S(=O)(=O)O)cc1)C(C)(C)C=C4CS(=O)(=O)O)C(CS(=O)(=O)O)=CC(C)(C)N3CCCC(=O)O [Compound 45]	719^b nm		698^b nm		
CN(Cc1ccc(S(=O)(=O)O)cc1S(=O)(=O)O)c1ccc2c(c1)C(C)(C)C1=C/C(=[N+](/C)Cc3ccc(S(=O)(=O)O)cc3S(=O)(=O)O)C=CC1=C2c1c(F)c(F)c(F)c(F)c1F [Compound 46]	666^b nm		646^b nm		
CN(Cc1ccc(S(=O)(=O)O)cc1S(=O)(=O)O)c1ccc2c(c1)C(C)(C)C1=C/C(=[N+](/C)Cc3ccc(S(=O)(=O)O)cc3S(=O)(=O)O)C=CC1=C2c1c(F)c(F)c(SCC(=O)O)c(F)c1F [Compound 47]	666^b nm		645^b nm		
CC1(C)c2cc3c(cc2C(c2c(F)c(F)c(SCCS(=O)(=O)O)c(F)c2F)=c2cc4c(cc21)=[N+](Cc1ccc(S(=O)(=O)O)cc1S(=O)(=O)O)C(C)(C)C=C4CS(=O)(=O)O)CCCN3CCCC(=O)O [Compound 48]	705^b nm		682^b nm		
CC1(C)c2cc3c(cc2C(c2c(Cl)cccc2Cl)=c2cc4c(cc21)=[N+](Cc1ccc(S(=O)(=O)O)cc1S(=O)(=O)O)C(C)(C)C=C4CS(=O)(=O)O)CCCN3CCCC(=O)O [Compound 52]	698^b nm		673^b nm		
CC1(C)c2cc3c(cc2C(c2c(Cl)cccc2Cl)=c2cc4c(cc21)=[N+](Cc1ccc(S(=O)(=O)O)cc1S(=O)(=O)O)C(C)(C)CC4CS(=O)(=O)O)CCCN3CCCC(=O)O (stereo not shown) [Compound 53]	677^b nm		654^b nm		
CN(Cc1ccc(S(=O)(=O)O)cc1S(=O)(=O)O)c1ccc2c(c1)[Si](C)(C)C1=C/C(=[N+](/C)Cc3ccc(S(=O)(=O)O)cc3S(=O)(=O)O)C=CC1=C2c1c(F)c(F)c(SCC(=O)O)c(F)c1F [Compound 54]	709^b nm		685^b nm		
